Assay results taken from PMC7942396, “Drug Repurposing Screen for Compounds Inhibiting the Cytopathic Effect of SARS-CoV-2” (Frontiers in Pharmacology, 2021).
Counter-ions that a name gives are not always drawn. Like-named read-outs stand apart in the source and are kept apart here.

How the values were obtained:
[1] = system: SARS-CoV-2 (USA_WA1/2020); assay: microbe, parasite or virus in culture; format: cell-based; conditions: for EC50: read-out: CPE EC50
[2] = SARS-CoV-2 CPE assay, Vero E6 cells
[3] = cytotoxicity counter-assay, Vero E6 cells without virus
[4] = read-out: Cytotox CC50, cytotoxicity counter-assay, Vero E6 cells without virus
[5] = SARS-CoV-2 CPE assay, Vero E6 cells, confirmed anti-SARS-CoV-2 compounds
[6] = SARS-CoV-2 CPE assay, Vero E6 cells, efficacy
[7] = […], DMSO 0%, no-virus control 100%, hit confirmation
[8] = Vero E6 cells without virus, 72 h

SMILES | % Cytotox (Vero E6 cells; [3]) [%] | CC50 (Vero E6 cells; [4]) [µM] | EC50 [1, 5] [µM] | CPE % Efficacy [1, 6] [%] | also measured
Cl.Cl.O=S(=O)(c1cccc2ccccc12)n1ccc2ccc(N3CCN4CCCC4C3)cc21 (centres unmarked) [NPS ALX Compound 4a dihydrochloride] | 93.1 | 12.6 |  |  | CPE % Efficacy [1, 2]: 100.0%; EC50 [1, 2]: 12.6 µM
COc1cccc([C@@H](C)NCCCc2ccccc2Cl)c1 [NPS-R568] | 15.8 | 12.6 | 11.2 | 78.0 | 
CC/C(=C(/CC)c1ccc(O)c(CN(CC)CC)c1)c1ccc(O)c(CN(CC)CC)c1 [NSC 33994, reference compound] |  |  |  |  | CPE % Efficacy [1, 7]: 107.6%; EC50 [1]: 8.9 µM; % Cytotox (Vero E6 cells; [8]): <30%
COc1ccc(-c2cc(C(O)C3CCCCN3)c3ccccc3n2)cc1.Cl.Cl (centres unmarked) [NSC-23925] | 49.3 | 10 | 5.62 | 40.3 | 
C/C(=N\NC(=S)N1CCC1)c1ccccn1 [NSC-319726] | 52.8 | 0.35 | 1.12 | 58.3 | 
Cc1ccc(C(=O)Nc2cccc(C(F)(F)F)c2)cc1Nc1nc(-c2cccnc2)nc2c1cnn2C [NVP-BHG712] |  |  | 2.51 | 123.5 | % Cytotox (Vero E6 cells): 58.4%; CC50 (Vero E6 cells): 3.98 µM
Cl.Oc1ccc2c3c1O[C@H]1c4[nH]c5ccc(N=C=S)cc5c4C[C@@]4(O)[C@@H](C2)N(CC2CC2)CC[C@]314 [Naltrindole isothiocyanate hydrochloride, reference compound] |  |  |  |  | CPE % Efficacy [1, 7]: 114.7%; EC50 [1]: 10 µM; % Cytotox (Vero E6 cells; [8]): <30%
OC(CNc1ccccc1)Cn1c2ccc(Br)cc2c2cc(Br)ccc21 (centres unmarked) [P7C3] | 54.5 | 11.2 | 3.98 | 65.2 | 
COc1cccc2c1CCCC2CCCN1CCN(C2CCCCC2)CC1 (centres unmarked) [PB-28] | 19.5 | 12.6 |  |  | CPE % Efficacy [1, 2]: 88.6%; EC50 [1, 2]: 11.2 µM
CCN(CC)CCCCNc1nc2cc(Cl)c(Cl)cc2nc1-c1ccc(-c2cccs2)s1 [PD-0220245] | 107.5 | 11.2 | 3.55 | 35.5 | 
CC(C)c1ccc(NC(=O)C(c2ccccc2)N(C)C(=O)Cc2c[nH]c3ccccc23)cc1 (centres unmarked) [PG-01] | 110.5 |  | 3.55 | 98.0 | 
Cc1cccc(Nc2nc(N[C@@H]3CCCC[C@@H]3N)ncc2C(N)=O)c1 [PRT-060318] | 45.2 | 12.6 | 11.2 | 56.9 | 
Cc1cc(CC(C)CC(C)(C)C)n(O)c(=O)c1.NCCO (centres unmarked) [Piroctone Olamine] | 46.6 | 1.78 | 4.47 | 61.2 | 
CCCOC(C(=O)OC1CCN(C)CC1)(c1ccccc1)c1ccccc1.Cl [Propiverine hydrochloride] | 0.0 |  | 11.2 | 44.6 | 
O=S(=O)(NCC1CC1)c1ccc(Nc2nccc(N3CCCc4cc(O)ccc43)n2)cc1 [Pyrintegrin] | 70.3 | 3.98 | 0.79 | 76.3 | 
Cc1ncc(NC(=O)c2cccc(C(F)(F)F)c2)cc1-c1cnc(OC2CCOCC2)c(N2CCOCC2)c1 [RAF-709] | 56.6 | 8.91 |  |  | CPE % Efficacy [1, 2]: 58.4%; EC50 [1, 2]: 14.1 µM
CCC(C)CNCC(=O)N1CCc2sccc2C1COc1cccc(C)c1 (centres unmarked) [RU-SKI 43] | 21.3 |  |  |  | CPE % Efficacy [1, 2]: 72.7%; EC50 [1, 2]: 14.1 µM
COc1ccc(CN2CCN(CCCSc3cc(C(C)(C)C)c(O)c(C(C)(C)C)c3)CC2)c(OC)c1OC [S-15176 difumarate salt, reference compound] |  |  |  |  | CPE % Efficacy [1, 7]: 127.4%; EC50 [1]: 3.8 µM; % Cytotox (Vero E6 cells; [8]): <30%

SMILES | % Cytotox (Vero E6 cells; [3]) [%] | CC50 (Vero E6 cells; [4]) [µM] | EC50 [1, 5] [µM] | CPE % Efficacy [1, 6] [%] | also measured
COc1ccc(NS(=O)(=O)c2sc3ccc(Cl)cc3c2C)cc1N1CCNCC1 [SB 271046 hydrochloride, reference compound] |  |  |  |  | CPE % Efficacy [1, 7]: 107.5%; EC50 [1]: 10 µM; % Cytotox (Vero E6 cells; [8]): <30%
Cc1cccc2c1CC[C@H](CN1CCC(c3c(Cl)cccc3Cl)CC1)C[C@@H]2O.Cl [SB 612111 hydrochloride] | 59.7 | 12.6 | 8.91 | 53.8 | 
COc1ccc(CCNCc2ccc(OC)c3ccccc23)cc1 [SBI-0087702] | 24.6 | 7.08 | 11.2 | 106.7 | 
COc1cc2ncnc(Sc3nnc(C)s3)c2cc1OC [SKLB1002] | 34.8 | 7.08 | 3.55 | 73.0 | 
O=C1NC(=O)/C(=C/c2cccc(C(F)(F)F)c2)S1 [SMI-4a] | 29.5 |  |  |  | CPE % Efficacy [1, 2]: 43.9%; EC50 [1, 2]: 12.6 µM
Cc1ccc(NC(=O)C(C)C)cc1C1CCN(Cc2ccc(Oc3ccc(F)c(F)c3)cc2)CC1.Cl [SNAP 94847 hydrochloride] | 95.1 | 12.6 | 4.47 | 60.0 | 
C/C(=N\NC(=O)c1cccc(S(=O)(=O)N2CCOCC2)c1)c1cc(Cl)ccc1O [SP2509] | 67.4 | 1 | 1.26 | 42.0 | 
CCc1ccccc1OC[C@@H](O)CN[C@H]1CCCc2ccccc21.Cl [SR 59230A hydrochloride] | 13.9 | 17.8 |  |  | CPE % Efficacy [1, 2]: 108.4%; EC50 [1, 2]: 11.2 µM
O=C(N[C@@H](c1ccccc1)[C@@H]1CCCCN1)c1cccc(C(F)(F)F)c1Cl [SSR-504734] | 15.7 | 7.94 |  |  | CPE % Efficacy [1, 2]: 31.7%; EC50 [1, 2]: 14.1 µM
Cc1cccc(Nc2nc(-c3ccncc3)cs2)c1 [STF-62247, reference compound] |  |  |  |  | Shape of concentration-response in the CPE assay ([1]; Figure 3): bell-shaped concentration-responses due to cytotoxicity; CPE % Efficacy [1, 7]: 107.1%; EC50 [1]: 1.1 µM; CC50 (Vero E6 cells; read-out: Cytotox CC50, Vero E6 cells without virus, 72 h): 11.2 µM
COc1cccc(CCc2ccccc2OCC(CN(C)C)OC(=O)CCC(=O)O)c1.Cl (centres unmarked) [Sarpogrelate hydrochloride] | 21.2 | 15.8 | 11.2 | 30.1 | 
CO[C@@H]1[C@@H](O[C@@H]2O[C@H](C)[C@@H](O[C@H]3C[C@@](C)(O)[C@@H](O)[C@H](C)O3)[C@H](N(C)C)[C@H]2O)[C@@H](CC=O)C[C@@H](C)[C@@H](O[C@H]2CC[C@H](N(C)C)[C@@H](C)O2)/C=C/C=C/C[C@@H](C)OC(=O)C[C@H]1OC(C)=O [Spiramycin II] | 0.0 |  |  |  | CPE % Efficacy [1, 2]: 33.4%; EC50 [1, 2]: 14.1 µM
CC(CN(C)C)CN1c2ccccc2Sc2ccc(C(F)(F)F)cc21 (centres unmarked) [Trifluomeprazine 2-butenedioate, reference compound] |  |  |  |  | CPE % Efficacy [1, 7]: 90.2%; EC50 [1]: 10 µM; % Cytotox (Vero E6 cells; [8]): <30%
CC(CN(C)C)CN1c2ccccc2Sc2ccccc21.CC(CN(C)C)CN1c2ccccc2Sc2ccccc21.O=C(O)C(O)C(O)C(=O)O (centres unmarked) [Trimeprazine tartrate] | 0.0 |  |  |  | CPE % Efficacy [1, 2]: 49.5%; EC50 [1, 2]: 12.6 µM
CCCCNc1ncc2c(-c3ccc(F)cc3)nn(CC3CCC(N)CC3)c2n1 (centres unmarked) [UNC-569] | 34.2 | 4.92 | 9.82 | 46.0 | 
CC[C@H](NC(=O)[C@H](CS(=O)(=O)CC1CC1)N[C@@H](c1ccc(F)cc1)C(F)(F)F)C(=O)C(=O)NC1CC1 [VBY-825, reference compound] |  |  |  |  | CPE % Efficacy [1, 7]: 97.8%; EC50 [1]: 0.14 µM; % Cytotox (Vero E6 cells; [8]): <30%
CC(C)(O)CNc1ncc(-c2ccnc(Nc3ccncc3)n2)c(CC2CC2)n1 [VPS34 Inhibitor 1, reference compound] |  |  |  |  | CPE % Efficacy [1, 7]: 98.3%; EC50 [1]: 1.4 µM; % Cytotox (Vero E6 cells; [8]): <30%
CCOC(=O)N[C@@H]1CC[C@@H]2[C@@H](C1)C[C@H]1C(=O)O[C@H](C)[C@H]1[C@H]2/C=C/c1ccc(-c2cccc(F)c2)cn1.O=S(=O)(O)O [Vorapaxar Sulfate] | 32.4 | 12.6 | 4.47 | 57.7 | 
